The record followed here is patent publication US20120258938A1, “Enzymatic Production or Chemical Synthesis and Uses for 5,7-Dienes and UVB Conversion Products Thereof” (priority 2008, published 2012).

Each structure is given as a SMILES string.

One test has as its system MG-63. As to the kind of experiment: Flow cytometry cell cycle and subG1, MG-63. The test is classed as cell-based, human. Conditions: MG-63, 24 h. The procedure: MD-MBA-231, MG-63, PC-3, and WM164 cells were seeded into Petri dishes and then incubated for 24 h with 20-hydroxycholecalciferol in DMEM medium containing 5% FBS. Then cells were fixed, DNA stained and samples read with flow cytometer as described (7). Data was analyzed with Cell Quest (BD Biosciences). Cell cycle phases were assessed in viable cell populations and subG1 contents were calculated within whole cell population.
For orientation: In flow cytometry, cells or beads pass a laser one at a time.

The subject of test [1] is collagen-induced arthritis (CIA) in DBA/1 Lac J mice. As to the kind of experiment: Type II collagen-induced arthritis (CIA) model. Conditions: i.p. every day at 2.5 μg/kg from day 14 post CII immunization. The test is classed as in vivo, mouse. An excerpt: The CIA model in DBA/1 Lac J mice has been widely studied as a model with some features of human RA, and has served as a reliable model to study various mediators and therapies of autoimmune arthritis. The immunization of DBA/1 Lac J mice with native bovine CII in complete Freund's adjuvant (CFA) is followed 10-14 days later by the onset of arthritis in the distal extremities. […] The arthritis is characterized by acute, subacute and chronic inflammation that correlates with histologic changes in distal extremity joints that progressively worsens during the subsequent 10 to 40 day period. The arthritis is dependent on the generation of inflammatory mediators from activation of the complement cascade by anti-CII antibodies, the infiltration of neutrophils, monocytes and T cells into the joint resulting in liberation of inflammatory cytokines and various proteases (42).
Twenty-four DBA/1 Lac J female mice 6 wks old were immunized with bovine CII in CFA. […] Arthritis severity was assessed every 3-4 days by two observers and each paw was given a score of 0=no swelling; 1=slight swelling and redness; 2=moderate swelling and redness; 3=marked swelling and redness; and 4=marked swelling and redness with deformity. […]

In another test the test system is VDRE. Nature of the test: Electrophoretic mobility shift assay for VDR activation (VDRE probe). The settings on record: HaCaT nuclear extracts, 10 nM, 24 h. The format is cell-based, human. On the technique in general: In EMSA bound probe runs differently from free probe, usually more slowly.
Test [2] deals with AbC1 hamster melanoma cells. Nature of the test: Soft agar colony formation, AbC1 melanoma. The test is classed as cell-based. The method, then: (§1) Growth and survival of prostate cancer cells (PC3) and melanoma cells SKMEL 188 and AbC1 was determined by following their ability to form colonies in soft agar. Cells growing in monolayer culture were trypsinized and resuspended (1,000 cells/well) in 0.25 ml medium containing 0.4% agarose and 5% charcoal stripped serum (HyClone).
Cell suspensions were added to 0.8% agar layer in 24 well plates. Compounds were added from ethanol stocks (100 μM) to final concentrations of 0.1 nM or 10 nM, in 100 μL media. Each condition was tested in quadruplicate. An ethanol solvent control (amount of ethanol equivalent to test) as well as a media-only control was included in the assay. […] […] Colonies were then counted under the microscope and number of units was calculated as number of colonies formed divided by the number of cells seeded×100.

Test [3] relates to PC3 human prostate cancer cells. As to the kind of experiment: Soft agar colony formation, PC3 prostate cancer. The format is cell-based. Conditions: PC3, dose dependent. The method, then: as §1
Cell suspensions were added to 0.8% agar layer in 24 well plates. Compounds were added from ethanol stocks (100 μM) to final concentrations of 0.1 nM or 10 nM, in 100 μL media. Each condition was tested in quadruplicate. An ethanol solvent control (amount of ethanol equivalent to test) as well as a media-only control was included in the assay. Cells were allowed to grow at 37° with 5% CO2 over two weeks with secosteroids in fresh media (100 μL) being added after every 72 h. Soft agar colonies were scored and stained with 0.5 mg/ml MTT reagent (Promega), 500 μL/well after two weeks. Colonies were then counted under the microscope and number of units was calculated as number of colonies formed divided by the number of cells seeded×100.

Regarding `C=C1CC[C@H](O)C/C1=C/C=C1\CCC[C@@]2(C)[C@H]1CC[C@@H]2[C@@](C)(O)CCCC(C)C` [20(OH)D3, (5Z,7E)-9,10-secocholesta-5,7,10(19)-triene-3β,20-diol], in the test on MG-63, the “G0/G1 of viable cells” value was found to be 52%, the “G2/M of viable cells” value is recorded as 15, the “S of viable cells” value was determined as 33% and the “Viable Cells” value was 18. Besides, the subG1 in the test with MG-63 (whole cell population) is 82. Moreover, in test [1], the “arthritis severity (CIA)” value is recorded as “suppresses CIA”. For the same molecule, in the test on VDRE, the “binding of protein complexes to VDRE probe” value was “stimulated binding activity of protein complexes to VDRE probe”.

`C=C1CC[C@H](O)C/C1=C/C=C1\CCC[C@]2(C)[C@@H](C(C)(O)CC(O)CC(C)C)CC[C@@H]12` (stereo partly drawn) [20,23-dihydroxycholecalciferol, (5Z,7E)-9,10-secocholesta-5,7,10(19)-triene-3β,20,23-triol]: the “decrease of colony formation in soft agar” value in test [2] (AbC1, 0.1 nM) is 30%; in test [2] (AbC1, 10 nM), “approximately 50%”.

As for `C=C1CC[C@H](O)C/C1=C/C=C1\CCC[C@]2(C)[C@@H](C(C)=O)CC[C@@H]12` [pD3, (5Z,7E)-3β-hydroxy-9,10-secopregna-5,7,10(19)-trien-20-one], in test [3], the “colony formation on soft agar” value is given as “suppress colony formation on soft agar”.
